Measurements: US9732087B2, “Diamino-pyridine, pyrimidine, and pyridazine modulators of the histamine H4 receptor” (JANSSEN PHARMACEUTICA NV, priority 2008, dated 2017)
Structures can show the parent of a compound that is named as a salt.

Molecular target: human H4 receptor (Homo sapiens (Human), UniProt Q9H3N8)
Test: Binding assay on recombinant human histamine H4 receptor ([3H]histamine competition, SK-N-MC cell membranes)
Conditions: membranes harvested with 96 well Brandel system; [3H]histamine 10 nM; average of results; read-out: Brandel Ki
Method in brief: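 Scintillation counting of filter-bound [3H]histamine after rapid harvesting on 0.5% PEI-treated GF/C filters with ice-cold Tris/EDTA washes. Receptor source: 30,000 g membrane pellets of SK-N-MC cells stably or transiently expressing human H4. Values shown as '>' are the top concentration tested.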

Chain of human H4 receptor (Q9H3N8 whole entry): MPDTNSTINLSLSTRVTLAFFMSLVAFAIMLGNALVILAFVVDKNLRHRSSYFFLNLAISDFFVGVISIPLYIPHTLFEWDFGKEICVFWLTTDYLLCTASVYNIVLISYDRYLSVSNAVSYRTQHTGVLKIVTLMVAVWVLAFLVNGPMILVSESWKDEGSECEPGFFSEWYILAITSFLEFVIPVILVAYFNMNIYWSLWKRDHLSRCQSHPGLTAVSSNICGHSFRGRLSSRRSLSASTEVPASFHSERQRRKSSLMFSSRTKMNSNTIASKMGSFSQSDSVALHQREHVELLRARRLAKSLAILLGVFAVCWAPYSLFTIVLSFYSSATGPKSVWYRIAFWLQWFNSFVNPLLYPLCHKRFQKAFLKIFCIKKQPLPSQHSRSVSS

SMILES | Ki [nM]
CN[C@@H]1CCN(c2cnnc(NC3CCCCC3)c2)C1 [Example 98, N-Cyclohexyl-5-[(3R)-3-(methylamino)pyrrolidin-1-yl]pyridazin-3-amine] | 4.8
CN1CCN(c2ccnc(NC3CC4CCC3C4)n2)CC1 (centres unmarked) [Example 44, N-[Bicyclo[2.2.1]hept-2-yl]-4-(4-methylpiperazin-1-yl)pyrimidin-2-amine] | 31.5
CC(C)CNc1cc(N2CCNCC2)ccn1 [Example 19, N-(2-Methylpropyl)-4-piperazin-1-ylpyridin-2-amine dihydrochloride] | 45.3
CN[C@@H]1CCN(c2ccnc(N[C@@H]3C[C@@H]4C[C@H]([C@H]3C)C4(C)C)c2)C1 [Example 10, 4-[(3R)-3-(Methylamino)pyrrolidin-1-yl]-N-[(1R,2R,3R,5S)-2,6,6-trimethylbicyclo[3.1.1]hept-3-yl]pyridin-2-amine] | 0.5

Same assay, conditions: membranes harvested with cell harvester; [3H]histamine 10 nM; average of results; read-out: Cell Harvester Ki

SMILES | Ki [nM]
CC1C(Nc2cc(N3CCN(C)CC3)ccn2)C[C@H]2C[C@@H]1C2(C)C (stereo partly drawn) [Example 232, 4-(4-Methylpiperazin-1-yl)-N-[(1S,5R)-2,6,6-trimethylbicyclo[3.1.1]hept-3-yl]pyridin-2-amine] | 716
c1cc(N2C[C@H]3CCN[C@H]3C2)cc(NCC2CCCC2)n1 [Example 261, N-(Cyclopentylmethyl)-4-[(3aR,6aR)-hexahydropyrrolo[3,4-b]pyrrol-5(1H)-yl]pyridin-2-amine] | 3560
c1cc(N2C[C@H]3CCN[C@H]3C2)cc(NC2CCOCC2)n1 [Example 277, 4-[(3aR,6aR)-Hexahydropyrrolo[3,4-b]pyrrol-5(1H)-yl]-N-(tetrahydro-2H-pyran-4-yl)pyridin-2-amine] | 97
COCCNc1cc(N2CCN(C)CC2)ccn1 [Example 239, N-(2-Methoxyethyl)-4-(4-methylpiperazin-1-yl)pyridin-2-amine] | 701
CN[C@H]1CCN(c2cnnc(NCC(C)(C)CO)c2)C1 [Example 383, 2,2-Dimethyl-3-({5-[(3S)-3-(methylamino)pyrrolidin-1-yl]pyridazin-3-yl}amino)propan-1-ol] | 596
CN[C@@H]1CCN(c2ccnc(NCCCO)n2)C1 [Example 167, 3-({4-[(3R)-3-(Methylamine)pyrrolidin-1-yl]pyrimidin-2-yl}amino)propan-1-ol] | 34.9
NC1CN(c2cnnc(NC3CC3)c2)C1 [Example 333, 5-(3-Aminoazetidin-1-yl)-N-cyclopropylpyridazin-3-amine] | > 10000
Fc1ccc(CNc2nccc(N3C[C@H]4CCN[C@H]4C3)n2)cc1 [Example 142, N-(4-Fluorobenzyl)-4-[(3aR,6aR)-hexahydropyrrolo[3,4-b]pyrrol-5(1H)-yl]pyrimidin-2-amine] | 7090
NC1CN(c2cnnc(NC3CC4CCC3C4)c2)C1 (centres unmarked) [Example 322, 5-(3-Aminoazetidin-1-yl)-N-bicyclo[2.2.1]hept-2-ylpyridazin-3-amine] | 88.1
c1nnc(NCC2CC2)cc1N1CCNCC1 [Example 361, N-(Cyclopropylmethyl)-5-piperazin-1-ylpyridazin-3-amine] | 1230
CN[C@@H]1CCN(c2ccnc(NC3CCCCC3)n2)C1 [Example 192, N-Cyclohexyl-4-[(3R)-3-(methylamino)pyrrolidin-1-yl]pyrimidin-2-amine] | 2.42
CN[C@@H]1CCN(c2ccnc(NCc3ccc(C)cc3)n2)C1 [Example 170, 4-[(3R)-3-(Methylamino)pyrrolidin-1-yl]-N-(4-methylbenzyl)pyrimidin-2-amine] | 144
CNC1CN(c2cnnc(NCCCO)c2)C1 [Example 334, 3-({5-[3-(Methylamino)azetidin-1-yl]pyridazin-3-yl}amino)propan-1-ol] | 2570
CC(C)(C)CNc1cc(N2CC(N)C2)cnn1 [Example 323, 5-(3-Aminoazetidin-1-yl)-N-(2,2-dimethylpropyl)pyridazin-3-amine] | > 10000
CNC1CN(c2ccnc(NCCOC)n2)C1 [Example 182, N-(2-Methoxyethyl)-4-[3-(methylamino)azetidin-1-yl]pyrimidin-2-amine] | 45.4
CN[C@@H]1CCN(c2ccnc(NCC3CCCCC3)n2)C1 [Example 191, N-(Cyclohexylmethyl)-4-[(3R)-3-(methylamino)pyrrolidin-1-yl]pyrimidin-2-amine] | 3.58
c1cc(N2CCNCC2)nc(NC2CCCC2)n1 [Example 63, Cyclopentyl-(4-piperazin-1-yl-pyrimidin-2-yl)-amine] | 293
C[C@H]1[C@@H](Nc2nccc(N3CCNCC3)n2)C[C@@H]2C[C@H]1C2(C)C (stereo in doubt) [Example 71, (4-Piperazin-1-yl-pyrimidin-2-yl)-(2,6,6-trimethyl-bicyclo[3.1.1]hept-3-yl)-amine] | 377
CN1CCN(c2ccnc(NCC3CCCO3)n2)CC1 (centres unmarked) [Example 50, 4-(4-Methylpiperazin-1-yl)-N-(tetrahydrofuran-2-ylmethyl)pyrimidin-2-amine] | 33.2
CC(C)(CO)CNc1cc(N2CC[C@@H](N)C2)cnn1 [Example 350, 3-({5-[(3R)-3-Aminopyrrolidin-1-yl]pyridazin-3-yl}amino)-2,2-dimethylpropan-1-ol] | 1720
CN[C@@H]1CCN(c2cnnc(NC3CCCCC3)c2)C1 [Example 98, N-Cyclohexyl-5-[(3R)-3-(methylamino)pyrrolidin-1-yl]pyridazin-3-amine] | 4.8
CN1CCN(c2ccnc(NC3CC4CCC3C4)n2)CC1 (centres unmarked) [Example 44, N-[Bicyclo[2.2.1]hept-2-yl]-4-(4-methylpiperazin-1-yl)pyrimidin-2-amine] | 85.7
CN(CCN)c1cnnc(NC2CC3CCC2C3)c1 (centres unmarked) [Example 302, N^5-(2-Amino-ethyl)-N^3-bicyclo[2.2.1]hept-2yl-N^5-methylpyridazine-3,5-diamine] | 98.1

SMILES | Ki [nM]
N[C@H]1CCN(c2ccnc(NC3CCCCC3)n2)C1 [Example 129, 4-[(3S)-3-Aminopyrrolidin-1-yl]-N-cyclohexylpyrimidin-2-amine] | 141
c1cc(N2CCNCC2)nc(NC2CC2)n1 [Example 112, N-Cyclopropyl-4-piperazin-1-ylpyrimidin-2-amine] | 236
NC1CN(c2ccnc(NC3CCCC3)n2)C1 [Example 85, 4-(3-Aminoazetidin-1-yl)-N-cyclopentylpyrimidin-2-amine] | 18.2
CN[C@@H]1CCN(c2cnnc(NCc3ccoc3)c2)C1 [Example 387, N-(Furan-3-ylmethyl)-5-[(3R)-3-(methylamino)pyrrolidin-1-yl]pyridazin-3-amine] | 835
CC(C)(C)CNc1cc(N2CCCNCC2)cnn1 [Example 307, 5-(1,4-Diazepan-1-y1)-N-(2,2-dimethylpropyl)pyridazin-3-amine] | 536
c1cc(N2C[C@H]3CCN[C@H]3C2)cc(NCC2CCCCC2)n1 [Example 256] | 617
C[C@@H](Nc1cc(N2CCN(C)CC2)ccn1)C1CCCCC1 [Example 214, N-[(1R)-1-Cyclohexylethyl]-4-(4-methylpiperazin-1-yl)pyridin-2-amine] | 416
COCCNc1cc(N2CCNCC2)ccn1 [Example 37, N-(2-Methoxyethyl)-4-piperazin-1-ylpyridin-2-amine] | 247
CN[C@@H]1CCN(c2cnnc(NCCOC)c2)C1 [Example 393, N-(2-Methoxyethyl)-5-[(3R)-3-(methylamino)pyrrolidin-1-yl]pyridazin-3-amine] | 1810
CNC1CN(c2ccnc(NC3CCCC3)n2)C1 [Example 172, N-Cyolopentyl-4-[3-(methylamino)azetidin-1-yl]pyrimidin-2-amine] | 13.7
c1cc(N2C[C@H]3CCN[C@H]3C2)cc(NC23CC4CC(CC(C4)C2)C3)n1 [Example 296, Adamantan-1-yl-[4-(3aR,6aR)-(hexahydro-pyrrolo[3,4-b]pyrrol-5-yl)-pyridin-2-yl]-amine] | 64.2
CN[C@@H]1CCN(c2ccnc(N[C@@H]3CCOC3)c2)C1 [Example 5, 4-[(3R)-3-(Methylamino)pyrrolidin-1-yl]-N-[(3R)-tetrahydrofuran-3-yl]pyridin-2-amine dihydrochloride] | 8.9
CN1CCN(c2ccnc(NCCc3ccccc3)n2)CC1 [Example 173, 4-(4-Methylpiperazin-1-yl)-N-(2-phenylethyl)pyrimidin-2-amine] | 745
CN[C@@H]1CCN(c2ccnc(N[C@@H]3C[C@@H]4C[C@H]([C@H]3C)C4(C)C)c2)C1 [Example 10, 4-[(3R)-3-(Methylamino)pyrrolidin-1-yl]-N-[(1R,2R,3R,5S)-2,6,6-trimethylbicyclo[3.1.1]hept-3-yl]pyridin-2-amine] | 0.5
CN[C@H]1CCN(c2cnnc(NCC3CCCCC3)c2)C1 [Example 396, N-(Cyclohexylmethyl)-5-[(3S)-3-(methylamino)pyrrolidin-1-yl]pyridazin-3-amine] | 380
CC(C)(O)CNc1cc(N2CCNCC2)ccn1 [Example 290, 2-Methyl-1-[(4-piperazin-1-ylpyridin-2-yl)amino]propan-2-ol] | 1480
CC(C)(C)CNc1cc(N2C[C@H]3CCN[C@H]3C2)ccn1 [Example 293, N-(2,2-Dimethylpropyl)-4-[(3aR,6aR)-hexahydropyrrolo[3,4-b]pyrrol-5(1H)-yl]pyridin-2-amine] | 60.9
CN[C@@H]1CCN(c2ccnc(NCC3CCCC3)n2)C1 [Example 121, N-(Cyclopentylmethyl)-4-[(3R)-3-(methylamino)pyrrolidin-1-yl]pyrimidin-2-amine] | 1.57
CN[C@H]1CCN(c2cnnc(NCC3CCCC3)c2)C1 [Example 382, N-(Cyclopentylmethyl)-5-[(3S)-3-(methylamino)pyrrolidin-1-yl]pyridazin-3-amine] | 138
CN1CCN(c2ccnc(NCc3ccccn3)n2)CC1 [Example 62, 4-(4-Methylpiperazin-1-yl)-N-(pyridin-2-ylmethyl)pyrimidin-2-amine] | > 10000
CC(C)(CO)CNc1nccc(N2CCNCC2)n1 [Example 166, 2,2-Dimethyl-3-[(4-piperazin-1-ylpyrimidin-2-yl)amino]propan-1-ol] | > 10000
COc1ccc(CNc2nccc(N3CCNCC3)n2)cc1 [Example 144, N-(4-Methoxybenzyl)-4-piperazin-1-ylpyrimidin-2-amine] | 2530
c1cc(N2C[C@H]3CCN[C@H]3C2)nc(NC2CC2)n1 [Example 143, N-Cyclopropyl-4-[(3aR,6aR)-hexahydropyrrolo[3,4-b]pyrrol-5(1H)-yl]pyrimidin-2-amine] | 267
